# According to patent publication US9381210B2 (Wisconsin Alumni Research Foundation, priority 2013, dated 2016):
# B1: G-CSF: cytokine used at 10 ng/ml to induce OLFM4 expression in sCD34+ cells (protein, UniProt P09919 31-207, looked up)
# Granulocyte …: TPLGPASSLPQSFLLKCLEQVRKIQGDGAALQEKLVSECATYKLCHPEELVLLGHSLGIPWAPLSSCPSQALQLAGCLSQLHSGLFLYQGLLQALEGISPELGPTLDTLQLDVADFATTIWQQMEELGMAPALQPTQGAMPAFASAFQRRAGGVLVASHLQSFLEVSYRVLRHLAQP
# Legend:
# [1] = system: CML sCD34+ cells; test: Hematopoietic colony-forming assay; type: cell-based, human
# Description: CD43^+ hematopoietic cells were collected from differentiated iPSC cultures using MACS and labeled with CD235a/CD41a FITC, CD45 APC and CD38 PE (BD Pharmingen). Lin^−CD45^+CD38^+ and lin^−CD45^+CD38^− subpopulations were obtained by fluorescence-activated cell sorter (FACSAria) (Vodyanik et al., 2006). Bone marrow mononuclear cells from CML patients in the chronic phase were purchased commercially (AllCells or Applied StemCells), or obtained from the patients at the University of Wisconsin Hospital and Clinics (Madison, Wis.) with approval from the University of Wisconsin Institutional Review Board. Donors had previously signed an Institutional Review Board-approved consent. Bone marrow cells from healthy donors were obtained from Cincinnati Children's Hospital Medical Center (CCHMC). Mononuclear cells were labeled with the lineage-specific markers CD2, CD3, CD14, CD15, CD16, CD19, CD20, CD24, CD41a, CD56, CD66b, and Glycophorin A (FITC-conjugated antibodies), CD34 APC (BD Pharmingen) and DAPI to exclude dead cells. Live lin^−CD34^+ cells were isolated using FACSAria (BD).
# Hematopoietic clonogenic assays were performed using serum-containing StemMACS semisolid clonogenic medium (Miltenyi Biotec, CA). Colonies were scored after fourteen to 21 days of incubation.
# [2] = system: CML iCD34+ cells; test: Adhesion assay to fibronectin; type: cell-based, human; settings: 5 μM imatinib, 24 hours
# [3] = system: OLFM4; test: OLFM4 expression by QPCR in CML iCD34+ cells; type: cell-based, human; settings: CML iCD34+ cells treated with imatinib
# Experimental: iPSCs-derived lin^−CD34^+CD45^+ cells and somatic CML bone marrow lin^−CD34^+ were transfected with 100 nM of either siOLFM4 or scrambled (AllStars Neg. siRNA AF 488) using HiPerfect transfection reagent according to the manufacturer's protocol (all from Qiagen). The transfection efficiency was 50-60% as evaluated by using control ALLStars Neg. siRNA AF488. As determined by QPCR performed 24 hours after transfection, the silencing efficiency was 70-75% (FIG. 9D).
# RNA was isolated from the cell subpopulations using PureLink RNA mini kit (Life Technologies). cDNA synthesis was carried out using Advantage RT-for-PCR kit (Clontech). Quantitative real-time PCR analysis was performed using Gand PlatinumSYBR Green qPCR SuperMix-UDG kit (Life Technologies) and self-designed specific primers for BCR-ABL (forward […] (SEQ ID NO:1); reverse […] (SEQ ID NO:2)), OLFM4 (forward […] (SEQ ID NO:3); reverse […] (SEQ ID NO:4)) and GAPDH (forward […] (SEQ ID NO:5); reverse […] (SEQ ID NO:6)).
# The reactions were run on a Mastercyclerep Realplex™ thermal cycler (Eppendorf) and expression levels were calculated by minimal cycle threshold values (Ct) normalized to the reference expression of GAPDH in each sample (Pfaffl, 2001). When specified, K562 was used as a reference. All QPCR products were analyzed on 1.2% agarose gels to confirm the specificity of detection.
# [4] = system: CML sCD34+ cells; test: Long-term culture initiating cell assay (LTC-IC); type: cell-based, human; settings: imatinib
# Experimental: Sorted iPSC-derived lin^−CD34^+CD45^+ cells were plated in a six-well plate at 10^4 cells/well containing 5-7 day-old cultures of murine 1×10^5 M2-10B4 and OP9 stromal cells (1:1 ratio mix) in LTC-IC medium consisting of SFM supplemented with 10 μM hydrocortisone, 50 ng/ml SCF, 5 ng/ml IL3, and 50 ng/ml IL6. Cultures were maintained at 37° C. in a humidified atmosphere with 5% CO2, and fed at weekly intervals. After five weeks, cells were harvested and analyzed for CFC potential as described above. LTC-IC assay for somatic lin^−CD34^+CD45^+ cells was performed using M2-10B4 cells exactly as described in the Stem Cell Technologies protocol to be found online at stemcell.com/en/Technical-Resources/db5a9/28412_Itc_ic-H.aspx.
# [5] = system: iCML CD34+ cells; settings: CFSE cultures, 5 μM imatinib, four days, annexin V
# Experimental: Differentiated cells were labeled with 1 μM carboxy-fluorescein diacetate succinimidyl diester (CFSE; Molecular Probes, Eugene, Oreg.) as previously described (Copland et al., 2006; Holtz et al., 2002). These cells were then incubated overnight in CSSM medium supplemented with growth factors to allow excess unbound dye to leak out of the cells. Cells cultured in the presence of 10 μg/ml mitomycin C (Sigma Aldrich) were used to establish the CFSEmax (undivided cell population). The next day, CFSE^bright cells were sorted by FACArias to exclude non-labeled and CFSE^dim populations. […] At the end of the culture period, cells were stained with CD34-APC and 7AAD for flow cytometry analysis. The percentage of cells in each generation was determined using FlowJo software (Tree Star, Ashland, Oreg.), with the position of the parent generation set on the basis of the fluorescence profile of undivided cells.
# [6] = system: sCD34+ cells; test: Cell proliferation assay; type: cell-based, human; settings: serum-free cultures without cytokines, OLFM4 300 ng/ml
# Experimental: Total lin^−CD34^+, lin^−CD34^+CD38^− or lin^−CD34^+CD38^+ were plated in triplicate in 96-well plate at 10^3 cells/well. […] When specified, the 300 ng/ml OLFM4 (Acro Biosystem) or the following growth factors were added: 10 ng/ml IL3, 100 ng/ml SCF, 100 ng/ml Flt3L, 100 ng/ml IL6 and 200 ng/ml GM-CSF. Viable cell yields were determined by counting trypan blue excluding viable cells using a hemocytometer.
# [7] = system: lin-CD34+ cells from CML bone marrow; test: Xenograft of siRNA-treated CML lin-CD34+ cells; type: in vivo, Nod scid gamma (NSG) mice; settings: four mice, 16 weeks; two out of four control siRNA animals engrafted
# Experimental: Sorted lin^−CD34^+ cells from CML bone marrow were transduced with either AllStars Negative control or OLFM4 siRNA for 24 hours. Cells were then washed and transplanted into Nod scid gamma (NSG) mice at 5-10×10^3 cells. Four mice were injected with cells treated with control siRNA and four mice were injected with OLFM4 siRNA. The mice were then analyzed at 16 weeks using flow cytometry for live human CD45^+ cells in bone marrow, liver, spleen, and peripheral blood.
# The cultured cells were labeled with human CD45, mouse CD45 and DAPI and sorted for live human CD45^+ mouse CD45^− cells. The sorted cells were then plated in methyl cellulose media for hematopoietic progenitor assay and RNA extracted for PCR.
# [8] = system: OLFM4; test: OLFM4 expression by RT-PCR/QPCR in sCD34+ cells; type: cell-based, human; settings: sCD34+ cells treated with G-CSF (10 ng/ml, 24 hours)
molecule,measurement,setting,value
"Cc1ccc(NC(=O)c2ccc(CN3CCN(C)CC3)cc2)cc1Nc1nccc(-c2cccnc2)n1 [imatinib, 4-[(4-methylpiperazin-1-yl)methyl]-N-(4-methyl-3-{[4-(pyridin-3-yl)pyrimidin-2-yl]amino}phenyl)benzamide]",response of parental bone marrow cells to imatinib (myeloid CFC potential),"[1]; parental lin-CD34+ BM cells of the CML patient, 5 μM imatinib, 24 hours pretreatment",sensitivity
same,adhesion to fibronectin,[2],partially restored
same,OLFM4 expression (QPCR),[3],augmentation of OLFM4 expression
same,LTC-ICs,[4],little effect
same,apoptosis in more mature iCD34dim and iCD34- cells,[5],substantial increase in apoptosis
same,apoptosis in most primitive iCD34bright cells,[5],resistant to imatinib-induced apoptosis
OLFM4: OLFM4 protein (Acro Biosystem) added to medium at 300 ng/ml; secreted glycoprotein,reversal of the knockdown effect on CFCs by OLFM4 pretreatment,"[1]; CML sCD34+ cells, OLFM4 protein 300 ng/ml",can be reversed
same,proliferation of sCD34+ cells,[6],potentiates expansion
same,proliferation of sCD34+ cells,[6]; listed as OLFM4 protein,enhanced proliferation
same,animals showing engraftment (live human CD45+ cells),[7],none
B1,OLFM4 expression,[8],rapidly induced
